From PubChem BioAssay AID179 (DTP/NCI, 2004)
The source made the active and inactive calls.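 How the source made its calls: active means compounds giving half or more protection of infected cells from virus-caused growth loss, again on retest; inactive means the rest.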

System: CEM cells HIV-1 protection, formazan growth assay
Assay: NCI AIDS Antiviral Assay
Conditions: for IC50: measured here: growth of uninfected CEM cells
Summary of the method: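 Screen of anti-HIV-1 activity in human CEM cells using a formazan-based growth measurement at five drug concentrations. Hits with 50% or greater protection were repeated, and confirmation required reproducible complete protection.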

| SMILES | EC50 [µM] | IC50 [µM] | outcome |
| --- | --- | --- | --- |
| c1ccc(Nn2c(CCCCCCCCc3nnc(COc4ccccc4)n3Nc3ccccc3)nnc2COc2ccccc2)cc1 | > 2 | > 2 | – |
| CN(C)c1ccc(/C=N\N2C(=O)c3ccccc3C2=O)cc1 | > 123 | > 123 | – |
| C[C@]12CC[C@H](OC3OC(CO)C(O)C(O)C3O)C[C@H]1CC[C@@H]1[C@@H]2CC[C@]2(C)[C@@H](C3=CCOC3=O)CC[C@]12O (some centres undefined) | > 100 | 0.0661 | – |
| CN(C)CCCN1c2ccccc2Sc2ccc(Cl)cc21 | > 200 | 10.2 | – |
| C/C(C=C(C#N)C#N)=C\c1cccc(F)c1 | > 123 | 14.1 | – |
| Cn1c(=O)oc2cc(C(O)CN3CCN(Cc4ccc5c(c4)OCO5)CC3)ccc21 (centres undefined) | > 200 | > 200 | – |
| C1=Cc2ccccc2/C1=C/c1ccc2c(c1)OCO2 | > 20.9 | 12.3 | – |
| COC(=O)C1([Se]c2ccccc2)CCN2CCC(OCc3ccccc3[N+](=O)[O-])C21 (centres undefined) | > 200 | > 200 | – |
| CC(C)OP(=O)(OC(C)C)C1=NN(c2ccc([N+](=O)[O-])cc2)C(N)(N)S1 | > 617 | 135 | – |
| C=CCn1c(=O)c2ccccc2[n+]2c(-c3cccc([N+](=O)[O-])c3)csc12 | > 200 | > 200 | – |
| CCCCc1ccc(Nc2ncc3[nH]cnc3n2)cc1 | > 200 | 29.5 | – |
| COc1ccc(N2C(=O)C3c4[nH]c5ccc(OC)cc5c4C4CCC(C(C)C)CC4C3C2=O)cc1 (centres undefined) | > 50.1 | > 50.1 | – |
| CCN1C[C@]2(CO)CCC(O)C34[C@@H]5C[C@@H]6C(OC(C)=O)[C@@H]5[C@](OC(C)=O)(C[C@@H]6OC)[C@@H](C(OC)[C@@H]32)[C@H]14 (some centres undefined) | – | – | inactive |
| c1ccc(P2(c3ccccc3)=NSN=S=N2)cc1 | > 200 | 74.1 | – |
| O=c1ccc(=Nc2ccc(NNc3ccccc3)cc2)c2c(=O)c3c([N+](=O)[O-])ccc(O)c3c(=O)c1=2 | > 100 | 17.8 | – |
| CCOc1cc(C2SCC(=O)N2c2ccc(Oc3ccc(Cl)cc3)c(Cl)c2)ccc1O (centres undefined) | > 200 | 27.5 | – |
| OCCN1CCN2C=C(C3CCCC4N(CCO)CCN34)CCC21 (centres undefined) | > 741 | 33.9 | – |
| CNC(=O)CC1NC(=O)c2csc(n2)-c2ccc(-c3nc(C4=NC(C(=O)N5CCCC5C(N)=O)CO4)cs3)nc2-c2csc(n2)-c2csc(n2)C(C(C)C)NC(=O)CNC(=O)c2csc(n2)C(C(C)C)NC(=O)c2nc1sc2C (centres undefined) | > 10 | > 10 | – |
| O=C1Nc2ccccc2C1S(=O)(=O)c1ccccc1 (centres undefined) | > 138 | 110 | – |

| SMILES | EC50 [µM] | IC50 [µM] | outcome |
| --- | --- | --- | --- |
| COc1ccc2[nH]c(S(=O)(=O)N3CC(CCl)c4ccc(N)cc43)cc2c1 (centres undefined) | > 0.2 | 0.102 | – |
| Cn1nc2ccc3nccc(NCCNCCO)c3c2n1 | > 871 | 3.89 | – |
| CC(=O)OCC1OC(n2c3c(cc(C#N)c2=S)CCCCC3)C(OC(C)=O)C(OC(C)=O)C1OC(C)=O (centres undefined) | > 200 | > 200 | – |
| CCC(C)C(NC(=O)C(N)CCCN=C(N)N)C(=O)NC(CCC(N)=O)C(=O)NC(CCCN=C(N)N)C(=O)NCC(=O)N1CCCC1C(=O)NCC(=O)NC(CCCN=C(N)N)C(=O)NC(C)C(=O)NC(Cc1ccccc1)C(=O)NC(C(=O)NC(C(=O)NC(C(=O)NCC(=O)NC(CCCCN)C(N)=O)C(C)CC)C(C)OC1OC(CO)C(O)C(O)C1NC(C)=O)C(C)C (centres undefined) | > 50.1 | > 50.1 | – |
| O=C(/C=C/c1ccccc1[N+](=O)[O-])c1ccccc1 | > 39.8 | 6.92 | – |
| O=C1NC2NC3NC(=O)NC3NC2N1 (centres undefined) | > 200 | > 200 | – |
| O=c1/c(=C/c2ccccc2F)sc2nc3ccccc3n12 | > 1.82 | > 1.82 | – |
| CCn1c(=O)c2nc(SC)sc2n(-c2ccccc2)c1=O | > 200 | > 200 | – |
| O=C(CC(=O)n1nc(-c2ccccc2)c(N=Nc2ccccc2C(=O)O)c1-c1ccccc1)Nc1ccc(Cl)cc1 | > 200 | 77.6 | – |
| COc1ccc2c(ccc3[nH]c4c(C)cnc(NCCCN(C)C)c4c32)c1 | > 2 | 0.132 | – |
| O=C1OC2C=CCC1C2 (centres undefined) | > 200 | > 200 | – |
| BrC12c3ccccc3Sc3ccccc3C1(Br)c1ccccc12 (centres undefined) | – | – | inactive |
| CCN(CC)C/C(C)=C(/c1ccccc1)c1ccccc1S(N)(=O)=O | > 200 | > 200 | – |
| CCCN=Cc1c(O)c(O)c(C(C)C)c2cc(C)c(-c3c(C)cc4c(C(C)C)c(O)c(O)c(C=NCCC)c4c3O)c(O)c12 | > 6.31 | 1.15 | – |
| O=C1c2c(O)cccc2C(C(=O)CCCCCC(=O)C2c3cccc(O)c3C(=O)c3c(O)cccc32)c2cccc(O)c21 | > 6.61 | 6.17 | – |
| N=C1N=C(N)c2cc3c(cc21)SCCSCCCSCCS3 | > 50.1 | 8.51 | – |
| Nc1n(CC(=O)c2ccccc2)nc2sc(-c3ccccc3)n[n+]12 | > 200 | 10.2 | – |
| CC1=NNC(=O)C1C1CC(c2c[nH]c3ccccc23)=NN/C1=N\N (centres undefined) | > 100 | > 100 | – |
| CCc1c(O)nc(Nc2nc3ccccc3[nH]2)[nH]c1=O | > 200 | > 200 | – |

| SMILES | EC50 [µM] | IC50 [µM] | outcome |
| --- | --- | --- | --- |
| CC(C)CC(NC(=O)OC(C)(C)C)C(=O)Nc1ccc(Nc2nc(F)nc(-c3c4ccccc4cn3C)n2)cc1 (centres undefined) | > 18.2 | 16.6 | – |
| CN(C)c1ccc2c(c1)-c1cc(N(C)C)ccc1C2=CC=C1C(=O)c2ccccc2C1=O | > 17 | > 17 | – |
| Cc1[nH]c2nccn2c(=O)c1CCO | > 200 | > 200 | – |
| CSc1c(C(=O)Nc2ccc(C)cc2)c(N)n(N)c(=O)c1C#N | 100 | 151 | – |
| O=C1CSC2=NCC3(NN12)c1ccccc1-c1ccccc13 | > 200 | > 100 | – |
| CC(=O)Nc1ccc(CNc2cc(=O)n(C)c(=O)[nH]2)cc1 | > 200 | > 200 | – |
| COc1ccc(OC(C)C(=O)O)c2c(=O)ccccc12 (centres undefined) | – | – | inactive |
| CN1CCN(CCC=C2c3ccccc3Sc3ccc(S(=O)(=O)N(C)C)cc32)CC1 | > 200 | 11.7 | – |
| COC(=O)C(=O)C(C(=O)C(=O)Nc1ccc([N+](=O)[O-])cc1[N+](=O)[O-])c1nc2ccc(Cl)cc2[nH]c1=O (centres undefined) | > 132 | > 132 | – |
| COc1ccc(/C(C)=N/NC(N)=O)cc1 | > 174 | > 174 | – |
| COC(=O)[C@H](Cc1ccccc1)NP(=O)(OCCC#N)OCC1OC(n2cc(C)c(=O)[nH]c2=O)CC1N=[N+]=[N-] (some centres undefined) | 0.513 | > 200 | – |
| CN(C)C1=Nc2ccccc2C(=S)N2CSCC12 (centres undefined) | > 200 | 29.5 | – |
| CC12CC3CC/C(=N\O)C(C1)C3(N1CCOCC1)C/C2=N/O (centres undefined) | > 200 | > 200 | – |
| Cc1ccc(S(=O)(=O)NCC2CCCCC2=O)cc1 (centres undefined) | > 129 | 123 | – |
| COc1nc2c(nc(N)n2C2OC(CO)C(O)C(O)C2O)c(=O)n1C (centres undefined) | – | – | inactive |
| CN(CCc1ccccn1)c1nc(=[N+](C)C)ss1 | – | – | inactive |
| O=C(O)CCSCc1cc(C(=O)Nc2ccc(/C=C/c3ccc(NC(=O)c4cc(CSCCC(=O)O)c5ccccc5c4O)cc3S(=O)(=O)O)c(S(=O)(=O)O)c2)c(O)c2ccccc12 | 83.2 | 162 | – |
| COC1=CC(=O)[C@@]2(C)C(C)[C@H](c3ccccc3)[C@H]2C1=O (some centres undefined) | > 251 | > 251 | – |
| COc1ccccc1C1C(Cl)C(=O)N1NC(=O)Cc1ccccc1 (centres undefined) | > 39.8 | > 39.8 | – |
